Data taken from patent US8980879B2 (AbbVie Inc., priority 2013, dated 2015).
Marks after values point to notes of the source that are not given here.

Columns and labels:
BRD4 (BDII_E352-M457) = target: T1, BRD4 (BDII_E352-M457) (Homo sapiens, UniProt O60885); assay: TR-FRET bromodomain binding assay, BRD4 second bromodomain
T1 construct: protocol; made in house
Protocol: (§1) A time-resolved fluorescence resonance energy transfer (TR-FRET) assay was used to determine the affinities of compounds of the Examples listed in Table 1 for each bromodomain of BRD4. His-tagged first (BD1: amino acids K57-E168) and second (BD2: amino acids E352-E168) bromodomains of BRD4 were expressed and purified. An Alexa647-labeled BET-inhibitor was used as the fluorescent probe in the assay.
(§2) Compound dilution series were prepared in DMSO via an approximately 3-fold serial dilution from one of the following:
(§3) Assay method D: 500 μM-8.5 nM
(§4) Assay method E: 0.47 mM to 7.8 nM
(§5) Assay method F: 250 μM-4.2 nM
(§6) Assay method G: 0.047 mM to 0.78 nM
(§7) or 5-fold serial dilution from one of the following:
(§8) Assay method A: 2.5 mM-800 nM
(§9) Assay method B: 2.5 mM-797 nM
(§10) For Assay methods A, C, D, and F: Compounds were then diluted 6:100 in assay buffer (20 mM Sodium Phosphate, pH 6.0, 50 mM NaCl, 1 mM Ethylenediaminetetraacetic acid, 0.01% Triton X-100, 1 mM DL-Dithiothreitol) to yield 3× working solutions. Six microliters (μL) of the working solution was then transferred to white, low-volume assay plates (Costar #3673). A 1.5× assay mixture containing His-tagged bromodomain, Europium-conjugated anti-His antibody (Invitrogen PV5596) and the Alexa-647-conjugated probe molecule was also prepared. Twelve μL of this solution were added to the assay plate to reach a final volume of 18 μL.
(§11) For Assay methods B, E, and G: Compound dilutions were added directly into white, low-volume assay plates (Perkin Elmer Proxiplate 384 Plus#6008280) using a Labcyte Echo in conjunction with Labcyte Access and Thermo Multidrop CombinL robotics. Compounds were then suspended in eight microliters (μL) of assay buffer (20 mM Sodium Phosphate, pH 6.0, 50 mM NaCl, 1 mM Ethylenediaminetetraacetic acid disodium salt dihydrate, 0.01% Triton X-100, 1 mM DL-Dithiothreitol) containing His-tagged bromodomain, Europium-conjugated anti-His antibody (Invitrogen PV5596) and Alexa-647-conjugated probe.
(§12) The final concentration of 1× assay mixture for assay methods A, B, C, D, E, F, and G contains 2% DMSO, 8 nM His-tagged bromodomain, 1 nM Europium-conjugated anti-His-tag antibody and 100 nM or 30 nM probe (for BDI or BDII, respectively) and compound concentration in the range of: 50 μM-16 nM for method A, 49.02 μM-15.63 nM for method B, 25 μM-423 pM for method C, 10 μM-169 pM for method D, 9.19 μM 150 pM for method E, 5 μM-85 pM for method F, and 0.92 μM-15 pM for method G.
(§13) After a one-hour equilibration at room temperature, TR-FRET ratios were determined using an Envision multilabel plate reader (Ex 340, Em 495/520).
(§14) TR-FRET data were normalized to the means of 24 no-compound controls (“high”) and 8 controls containing 1 μM un-labeled probe (“low”). Percent inhibition was plotted as a function of compound concentration and the data were fit with the 4 parameter logistic equation to obtain IC50s Inhibition constants (Ki) were calculated from the IC50s, probe Kd and probe concentration. Typical Z′ values were between 0.65 and 0.75. The minimum significant ratio was determined to evaluate assay reproducibility (Eastwood et al., (2006) J Biomol Screen, 11: 253-261). The MSR was determined to be 2.03 for BDI and 1.93 for BDII, and a moving MSR (last six run MSR overtime) for both BDI and BDII was typically <3.

[1] = system: LPS induced IL-6 production; assay: LPS (lipopolysaccharide) induced IL-6 production mouse assay; type: in vivo, mice; settings: 3 mg/kg oral 1 h before LPS 2.5 mg/kg ip, serum IL-6 2 h after LPS, p<0.05
Protocol: LPS (Lipopolysaccharide) Induced IL-6 Production Mouse Assay
Compounds of the Examples listed in Table 2 were assayed for their ability to inhibit LPS (lipopolysaccharide) induced IL-6 (Interleukin-6) production in mice. Fox Chase SCID® female mice (Charles Rivers Labs, 5 per group) or CD1 female mice (5 mice per group) received an intraperitoneal challenge of lipopolysaccharide (2.5 mg/kg, L2630 E. coli 0111:B4) one hour after oral administration of compounds. Mice were euthanized 2 hours after lipopolysaccharide injection, blood was removed by cardiac puncture, and then the serum harvested from the blood samples was frozen at −80° C. On the day of the assay the serum samples were brought to room temperature and then diluted 1:20 in phosphate-buffered saline containing 2% bovine serum albumin. Interleukin-6 measurements were performed using a cytokine assay from Meso Scale Discovery (Gaithersburg, Md.) for mouse serum analysis according to the manufacturer's protocol and read on a SECTOR Imager 6000 (Meso Scale Discovery, Gaithersburg, Md.) instrument. Statistical analysis was performed using Prism software (version 5.0) incorporating Dunnett's one way ANOVA. The IL-6 mean and standard deviation of the group of vehicle treated animals were compared with the IL-6 mean and standard deviation of the group treated with drug. A p value <0.05 means that there is less than a 5% probability that the mean values in the two groups are equal.

BRD4 (BDI_K57-E168) = target: T2, BRD4 (BDI_K57-E168) (Homo sapiens, UniProt O60885); assay: TR-FRET bromodomain binding assay, BRD4 first bromodomain; settings: His-tagged BD1, 100 nM Alexa647 probe; assay protocol D or F as given per row in c1; Ki calculated from IC50
T2 construct: BD1: amino acids K57-E168; made in house
Protocol: as §1, §2, §3, §4, §5, §6, §7, §8, §9, §10, §11, §12, §13, §14

[2] = system: breast cancer cell line MX-1; assay: MX-1 cell line proliferation assay; type: cell-based; settings: Homo sapiens, MX1; MX-1 cells, 3-day (72 h) proliferation, Cell Titer Glo; read-out: Cellular proliferation: EC50
Protocol: MX-1 Cell Line Proliferation Assay
The impact of compounds of the Examples on cancer cell proliferation was determined using the breast cancer cell line MX-1 (ATCC) in a 3-day proliferation assay and the data are reported in Table 1. MX-1 cells were maintained in RPMI 1640 medium (Sigma) supplemented with 10% FBS at 37 C.° and an atmosphere of 5% CO2. For compound testing, MX-1 cells were plated in 96-well black bottom plates at a density of 5000 cells/well in 90 μL of culture media and incubated at 37° overnight to allow cell adhesion and spreading. Compound dilution series were prepared in DMSO via a 3-fold serial dilution from 3 mM to 0.1 μM. The DMSO dilution series were then diluted 1:100 in phosphate buffered saline, and 10 μL of the resulted solution were added to the appropriate wells of the MX-1 cell plate. The final compound concentrations in the wells were 3, 1, 0.3, 0.1, 0.03, 0.01, 0.003, 0.001, 0.0003 and 0.0001 μM.
Luminescence readings from the Cell Titer Glo assay were normalized to the DMSO treated cells and analyzed using the GraphPad Prism software with sigmoidal curve fitting to obtain EC50s. The minimum significant ratio (MSR) was determined to evaluate assay reproducibility (Eastwood et al., (2006) J Biomol Screen, 11: 253-261). The overall MSR was determined to be 2.1 and a moving MSR (last six run MSR overtime) has been <2.

[3] = system: OPM-2 human multiple myeloma cancer xenograft; assay: Xenograft tumor growth inhibition assay (OPM-2); type: in vivo, mice; settings: for % TGI: QDx21, female SCID-beige mice; for % removed from study: QDx21, removed due to morbidity or weight loss in excess of 20%
Protocol: Xenograft Tumor Growth Inhibition Assay
The effect of compounds of the examples to inhibit the growth of OPM-2 xenograft tumors implanted in mice was evaluated. A suspension of cancer cells (5×10^6 per 0.1 mL) prepared in RPMI culture medium (Invitrogen, Carlsbad, Calif.) was diluted 1:1 with a solution of Matrigel™ (BD Biosciences, Franklin Lakes, N.J.) and inoculated subcutaneously into the right hind flank of female SCID-beige (Charles River Labs) mice. […] Administration of compound or vehicle was initiated on the day following randomization and continued for 21 days. Tumors were measured twice a week throughout the treatment period using a pair of calipers and tumor volumes were calculated according to the formula V=L×W^2/2 (V: volume, mm^3; L: length, mm. W: width, […]) Tumor growth inhibition was calculated based on the mean tumor volume measured on the first day that the mean volume of the vehicle group exceeded 2000 mm^3 according to the formula % TGI=100−mean tumor volume of treatment group/mean tumor volume of control group×100.

Row | SMILES | Ki (BRD4 (BDII_E352-M457)) | Ki (BRD4 (BDI_K57-E168)) | EC50 [2] | further results
1 | Cn1cc2c3c(c[nH]c(=O)c31)CN(c1ccc(F)cc1F)c1ccc(CS(C)(=O)=O)cc1-2 [Example 5] | 1.95 nM | 1.76 nM | 3.95 nM | % inhibition at 3 mg/kg (LPS induced IL-6 production) ([1]; SCID female mice): 71%; % TGI ([3]; 2.5 mg/kg PO): 66*** %; % removed from study ([3]; 2.5 mg/kg PO): 0%; % TGI ([3]; 5.0 mg/kg PO): 81*** %; % removed from study ([3]; 5.0 mg/kg PO): 44%
2 | CN1CCN(CC(=O)Nc2ccc3c(c2)-c2cn(C)c4c(=O)[nH]cc(c24)CN3c2ccc(F)cc2)CC1 [Example 36] | 23.2 nM | 1.34 nM | 16.8 nM | % inhibition at 3 mg/kg (LPS induced IL-6 production) ([1]; CD1 female mice): 68%
3 | Cn1cc2c3c(c[nH]c(=O)c31)CN(c1ccc(F)cc1)c1ccc(NC(=O)CCCC(=O)Nc3ccccc3)cc1-2 [Example 34] | 24.9 nM | 2.2 nM | 47.9 nM | 
4 | Cn1cc2c3c(c[nH]c(=O)c31)CN(c1ccc(F)cc1)c1ccc(NS(=O)(=O)c3ccccc3)cc1-2 [Example 26] | 3.12 nM | 0.27 nM | 9.48 nM | 
5 | Cn1cc2c3c(c[nH]c(=O)c31)CN(c1ccc(F)cc1)c1ccc(NC(=O)CCN3CCCCC3)cc1-2 [Example 48] | 19.5 nM | 2.39 nM | 29.5 nM | 
6 | Cn1cc(CC(=O)Nc2ccc3c(c2)-c2cn(C)c4c(=O)[nH]cc(c24)CN3c2ccc(F)cc2)cn1 [Example 28] | 8.21 nM | 1.17 nM | 13.5 nM | 
7 | CN1CCN(CCC(=O)Nc2ccc3c(c2)-c2cn(C)c4c(=O)[nH]cc(c24)CN3c2ccc(F)cc2)CC1 [Example 47] | 13.3 nM | 1.14 nM | 14.3 nM | 
8 | Cc1ncc(CC(=O)Nc2ccc3c(c2)-c2cn(C)c4c(=O)[nH]cc(c24)CN3c2ccc(F)cc2)s1 [Example 32] | 11.6 nM | 1.37 nM | 12.3 nM | 
9 | CC(=O)Nc1cnc2c(c1)-c1cn(C)c3c(=O)[nH]cc(c13)CN2c1ccc(Cl)cc1 [Example 72] | 4.41 nM | 2.56 nM | 10.1 nM | % inhibition at 3 mg/kg (LPS induced IL-6 production) ([1]; CD1 female mice): 63%
10 | CCS(=O)(=O)Nc1ccc2c(c1)-c1cn(C)c3c(=O)[nH]cc(c13)CN2C1CCN(C(C)=O)CC1 [Example 74] | 17 nM | 3.61 nM | > 1000 nM | 
11 | Cn1cc2c3c(c[nH]c(=O)c31)CN(c1ccc(F)cc1)c1ccc(CS(C)(=O)=O)cc1-2 [Example 4] | 2.15 nM | 0.61 nM | 1.39 nM | % inhibition at 3 mg/kg (LPS induced IL-6 production) ([1]; SCID female mice): 70%; % TGI ([3]; 3.75 mg/kg PO): 68*** %; % removed from study ([3]; 3.75 mg/kg PO): 11%; % TGI ([3]; 7.5 mg/kg PO): 84*** %; % removed from study ([3]; 7.5 mg/kg PO): 44%
